Reference: ChEMBL document CHEMBL1201862, “PubChem BioAssay data set” (2004)
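All cell lines were grown in 96-well plates and treated with compound for 48 hours. At the GI50, growth is halved.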 Calls of active or inactive are those of the source. No stated cut-off is given here; in the data, active = GI50 up to about 1.1 µM and inactive = higher.

What was measured:
Experiment in all cases: DTP human tumour cell line panel, 48 h
SK-MEL-5 = system: SK-MEL-5
RXF 393 = system: RXF 393
MOLT-4 = system: MOLT-4
A498 = system: A498
OVCAR-8 = system: OVCAR-8
SF-539 = system: SF-539
MDA-N = system: MDA-N
NCI-H460 = system: NCI-H460
MCF7 = system: MCF7
ACHN = system: ACHN
SNB-75 = system: SNB-75
EKVX = system: EKVX
U-251 = system: U-251
SF-295 = system: SF-295
HCT-116 = system: HCT-116
MDA-MB-435 = system: MDA-MB-435
SF-268 = system: SF-268
DU-145 = system: DU-145
MDA-MB-231 = system: MDA-MB-231
UACC-257 = system: UACC-257

Measured: GI50

CCSc1nnc(Sc2c3ccccc3nc3ccccc23)s1
inactive: SK-MEL-5 15.6 µM | RXF 393 17.2 µM | MOLT-4 2.63 µM | A498 23.8 µM | OVCAR-8 20.3 µM | SF-539 7.94 µM | MDA-N 6.68 µM | NCI-H460 19.6 µM | MCF7 3.92 µM | ACHN 5.19 µM | SNB-75 35.3 µM | EKVX 11.6 µM | U-251 23.3 µM | SF-295 99.3 µM | HCT-116 7.41 µM | MDA-MB-435 9.84 µM | SF-268 19.3 µM | DU-145 15.2 µM | MDA-MB-231 18.8 µM | UACC-257 7.98 µM

COc1ccc(C(C)NNC(=O)c2ccncc2)cc1OC (stereo not given)
inactive: SK-MEL-5 > 100 µM | RXF 393 > 100 µM | MOLT-4 > 100 µM | A498 > 100 µM | OVCAR-8 > 100 µM | SF-539 > 100 µM | MDA-N > 100 µM | NCI-H460 > 100 µM | MCF7 > 100 µM | ACHN > 100 µM | SNB-75 > 100 µM | EKVX > 100 µM | U-251 > 100 µM | SF-295 > 100 µM | HCT-116 > 100 µM | MDA-MB-435 > 100 µM | SF-268 > 100 µM | DU-145 > 100 µM | MDA-MB-231 > 100 µM | UACC-257 > 100 µM
